Results on six compounds are retold here after US8030300B2, “Ligands for nicotinic acetylcholine receptors, and methods of making and using them” (priority 2003, dated 2011).

Each structure is given as a SMILES string. Read-outs that look alike come from different tables or passages of the source.

The target of one test is T1, α2β2 nAChR subtype (Rattus norvegicus, UniProt P12389+P12390).
T1 construct: expressed in transfected cells
In words: biochemical. It counts as binding. The note with it: mean of 3 independent measurements. From the text:
(§1) In order to assess the steric and hydropathic effects of the C-5 substituents of the pyridine on the binding affinity and subtype-selectivity at neuronal nicotinic acetylcholine receptors. […] The binding affinity ratios for a ligand, calculated from its affinities at an α subunit paired with either the β2 osubunit or the β4 subunit, represents a measure of the selectivity of that ligand with regard to the β subunits.

In the next test the target is T2, α2β4 nAChR subtype (Rattus norvegicus, UniProt P12389+P12392).
T2 construct: expressed in transfected cells
T2 sequence (P12389 28-511): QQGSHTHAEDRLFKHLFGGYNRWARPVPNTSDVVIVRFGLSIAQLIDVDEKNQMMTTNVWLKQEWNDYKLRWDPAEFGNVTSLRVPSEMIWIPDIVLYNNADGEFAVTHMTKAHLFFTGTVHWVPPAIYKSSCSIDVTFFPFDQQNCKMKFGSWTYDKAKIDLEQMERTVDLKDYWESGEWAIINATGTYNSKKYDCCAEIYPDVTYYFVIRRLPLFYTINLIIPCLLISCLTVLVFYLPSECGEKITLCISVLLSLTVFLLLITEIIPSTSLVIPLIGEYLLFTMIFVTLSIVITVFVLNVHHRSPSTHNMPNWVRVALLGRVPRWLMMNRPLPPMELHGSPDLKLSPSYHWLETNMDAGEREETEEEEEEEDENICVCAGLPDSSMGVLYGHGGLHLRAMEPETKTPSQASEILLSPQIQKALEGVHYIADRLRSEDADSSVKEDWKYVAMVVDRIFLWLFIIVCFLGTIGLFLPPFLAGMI
T2 sequence (P12392 21-495): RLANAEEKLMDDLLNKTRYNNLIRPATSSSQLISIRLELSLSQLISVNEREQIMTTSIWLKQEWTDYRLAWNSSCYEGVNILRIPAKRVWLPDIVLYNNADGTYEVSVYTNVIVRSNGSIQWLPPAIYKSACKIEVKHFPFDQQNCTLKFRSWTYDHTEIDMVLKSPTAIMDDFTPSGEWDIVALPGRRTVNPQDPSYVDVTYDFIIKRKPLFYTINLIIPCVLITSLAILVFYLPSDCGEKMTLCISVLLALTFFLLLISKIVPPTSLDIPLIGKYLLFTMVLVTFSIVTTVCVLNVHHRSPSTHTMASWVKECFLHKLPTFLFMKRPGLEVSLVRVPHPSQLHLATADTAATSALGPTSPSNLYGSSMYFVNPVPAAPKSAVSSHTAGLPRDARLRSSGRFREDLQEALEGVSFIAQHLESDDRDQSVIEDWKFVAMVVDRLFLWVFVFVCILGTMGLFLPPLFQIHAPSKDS
In words: biochemical. Format: binding. As to conditions: mean of 3 independent measurements.
Excerpt: as §1

A further test concerns the target T3, α3β2 nAChR subtype (Rattus norvegicus, UniProt P04757+P12390).
T3 construct: expressed in transfected cells
The experiment in a line: biochemical. Format: binding. The note with it: mean of 3 independent measurements.
Excerpt: as §1

A further test has as its target T4, α3β4 nAChR subtype (Rattus norvegicus, UniProt P04757+P12392).
T4 construct: expressed in transfected cells
In words: biochemical. Format: binding. As to conditions: mean of 3 independent measurements.
Excerpt: as §1

For another test, the target named is T5, α4β2 nAChR subtype (Rattus norvegicus, UniProt P09483+P12390).
T5 construct: expressed in transfected cells
T5 sequence (P12390 25-500): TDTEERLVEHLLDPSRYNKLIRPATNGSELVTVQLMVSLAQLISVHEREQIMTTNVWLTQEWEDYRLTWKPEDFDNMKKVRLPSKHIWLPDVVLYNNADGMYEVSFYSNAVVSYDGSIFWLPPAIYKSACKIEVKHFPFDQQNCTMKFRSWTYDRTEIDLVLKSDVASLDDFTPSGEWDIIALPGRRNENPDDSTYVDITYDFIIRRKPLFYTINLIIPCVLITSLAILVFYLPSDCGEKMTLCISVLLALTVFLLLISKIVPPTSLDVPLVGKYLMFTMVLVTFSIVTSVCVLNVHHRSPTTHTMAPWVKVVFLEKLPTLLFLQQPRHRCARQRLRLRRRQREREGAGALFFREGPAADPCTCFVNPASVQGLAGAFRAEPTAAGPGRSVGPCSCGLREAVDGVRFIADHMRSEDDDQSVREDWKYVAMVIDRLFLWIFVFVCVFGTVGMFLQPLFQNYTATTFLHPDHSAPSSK
T5 sequence (P09483 31-630): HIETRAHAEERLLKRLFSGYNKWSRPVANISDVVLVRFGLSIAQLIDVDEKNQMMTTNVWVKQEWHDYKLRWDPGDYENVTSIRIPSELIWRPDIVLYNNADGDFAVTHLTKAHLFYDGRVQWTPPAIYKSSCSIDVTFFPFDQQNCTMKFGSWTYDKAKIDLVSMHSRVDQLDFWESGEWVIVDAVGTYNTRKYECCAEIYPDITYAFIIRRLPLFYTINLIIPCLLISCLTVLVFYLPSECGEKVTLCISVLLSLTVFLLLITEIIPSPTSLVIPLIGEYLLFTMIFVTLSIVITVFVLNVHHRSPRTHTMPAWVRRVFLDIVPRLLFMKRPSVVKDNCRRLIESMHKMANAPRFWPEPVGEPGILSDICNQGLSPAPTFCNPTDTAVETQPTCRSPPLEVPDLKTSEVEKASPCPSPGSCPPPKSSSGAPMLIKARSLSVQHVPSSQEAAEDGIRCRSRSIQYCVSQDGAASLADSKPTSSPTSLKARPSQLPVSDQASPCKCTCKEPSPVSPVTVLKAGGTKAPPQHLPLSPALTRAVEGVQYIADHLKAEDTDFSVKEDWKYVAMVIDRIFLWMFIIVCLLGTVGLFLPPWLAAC
In words: biochemical. Format: binding. As to conditions: for Ki: mean of 3 independent measurements; for more selective for α4β2 over α3β4 than the corresponding parent compounds 7, 8, and 2: text b210.
Excerpt: as §1

Another test concerns the target T6, α4β4 nAChR subtype (Rattus norvegicus, UniProt P09483+P12392).
T6 construct: expressed in transfected cells
The experiment in a line: biochemical. As to conditions: mean of 3 independent measurements. It counts as binding.
Excerpt: as §1

The target in test [1] is T7, receptors in rat forebrain (mainly α4β2) (Rattus norvegicus, UniProt P09483+P12390).
T7 construct: from tissue; host or cells: rat forebrain homogenate
T7 sequence (P09483 31-630): as above
T7 sequence (P12390 25-500): as the sequence (P12390 25-500) above
The experiment in a line: biochemical. Format: binding. The note with it: Table 3, mean of 3 independent measurements.

The subject of test [2] is receptors in rat forebrain (mainly α4β2). The experiment in a line: biochemical. Format: binding. The note with it: Table 3; ratio of the corresponding Ki values.
The conditions of test [3]: background b17; approximate; cited from earlier work.

T6 sequence (P12392 21-495): as the sequence (P12392 21-495) above
T6 sequence (P09483 31-630): as the sequence (P09483 31-630) above
T1 sequence (P12390 25-500): as the sequence (P12390 25-500) above
T1 sequence (P12389 28-511): as the sequence (P12389 28-511) above
T3 sequence (P12390 25-500): as the sequence (P12390 25-500) above
T3 sequence (P04757 26-499): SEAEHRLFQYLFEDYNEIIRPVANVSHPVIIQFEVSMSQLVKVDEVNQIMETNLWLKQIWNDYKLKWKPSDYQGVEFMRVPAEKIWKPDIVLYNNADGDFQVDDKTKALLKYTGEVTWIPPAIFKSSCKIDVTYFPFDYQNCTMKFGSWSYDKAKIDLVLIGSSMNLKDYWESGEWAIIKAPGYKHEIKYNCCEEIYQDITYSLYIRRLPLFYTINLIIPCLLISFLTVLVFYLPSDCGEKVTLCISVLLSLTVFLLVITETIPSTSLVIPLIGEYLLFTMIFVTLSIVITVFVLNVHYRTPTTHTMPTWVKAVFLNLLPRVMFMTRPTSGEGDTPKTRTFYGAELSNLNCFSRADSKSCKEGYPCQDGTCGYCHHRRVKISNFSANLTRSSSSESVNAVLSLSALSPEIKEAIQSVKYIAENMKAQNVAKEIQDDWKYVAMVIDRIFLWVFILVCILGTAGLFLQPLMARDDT
T4 sequence (P04757 26-499): as above
T4 sequence (P12392 21-495): as the sequence (P12392 21-495) above

In the case of `OCCCCC#Cc1ccc(C2CC3CCC2N3)cn1` (stereo not shown) [Ligand 34], the Ki at α2β2 nAChR subtype (Ki α2β2, Table 3) is 16.9 nM; at α2β4 nAChR subtype (Ki α2β4, Table 3) it was 67.4 nM; on α3β2 nAChR subtype (Ki α3β2, Table 3), 19.8 nM; at α3β4 nAChR subtype (Ki α3β4, Table 3) it was 95.4 nM; on α4β2 nAChR subtype (Ki α4β2, Table 3), 67.7 nM; at α4β4 nAChR subtype (Ki α4β4, Table 3), 61.8 nM. The compound further returned a Ki in test [1] (Ki Forebrain) of 52 nM. Moreover, at α4β2 nAChR subtype (text b208), the “folds lower binding affinities than epibatidine at the nAChRs” value is reported as 200-1000 folds. Besides, the “subtype selectivity among the neuronal nAChRs” value at α4β2 nAChR subtype (text b208) was “less than 6 fold”. Also, the “Affinity ratio (α3β4/Forbrain)” value in test [2] is 2.

For the compound `Clc1ccc(C2CC3CCC2N3)cn1` (racemic) [Epibatidine, 2-exo-(2-Chloro-5-pyridyl)-7-azabicyclo[2.2.1]heptane], in test [3], the “analgesic potency, times that of morphine” value was approximately 500 times.

On to `OCCCCC#Cc1cncc(OC[C@@H]2CCCN2)c1` [Ligand 27], for which the Ki at α2β2 nAChR subtype (Table 3, read-out: Ki α2β2) turned out to be 1.51 nM; at α2β4 nAChR subtype (Table 3, read-out: Ki α2β4), 835 nM; on α3β2 nAChR subtype (Table 3, read-out: Ki α3β2) it was 2.69 nM; at α3β4 nAChR subtype (Table 3, read-out: Ki α3β4) it was 16100 nM; at α4β2 nAChR subtype (Table 3, read-out: Ki α4β2), 0.665 nM; on α4β4 nAChR subtype (Table 3, read-out: Ki α4β4), 778 nM. Besides, in test [1] (read-out: Ki Forebrain), the Ki amounted to 1.15 nM. Moreover, the “more selective for α4β2 over α3β4 than the corresponding parent compounds 7, 8, and 2” value on α4β2 nAChR subtype was 2 orders of magnitude. Besides, in test [2], the “Affinity ratio (α3β4/Forbrain)” value is given as 14,000.

Consider `FCCCCC#Cc1cncc(OC[C@@H]2CCN2)c1` [Ligand 41], for which the “affinities for α4β2 nAChR subtype (in words)” value on α4β2 nAChR subtype is reported as “subnanomolar”. Further, the “Affinity ratio (α3β4/Forbrain)” value in test [2] is on record as 15,166.

`FCCCCC#Cc1cncc(OC[C@@H]2CCCN2)c1` [Ligand 42]: the Ki was found to be 3.5 nM on α2β2 nAChR subtype (Table 3, read-out: Ki α2β2); 680 nM at α2β4 nAChR subtype (Table 3, read-out: Ki α2β4); 5.27 nM at α3β2 nAChR subtype (Table 3, read-out: Ki α3β2); 7580 nM at α3β4 nAChR subtype (Table 3, read-out: Ki α3β4); 0.907 nM on α4β2 nAChR subtype (Table 3, read-out: Ki α4β2); 721 nM on α4β4 nAChR subtype (Table 3, read-out: Ki α4β4). The Ki in test [1] (read-out: Ki Forebrain) is 3.45 nM. The “affinities for α4β2 nAChR subtype (in words)” value at α4β2 nAChR subtype is on record as “subnanomolar”. In test [2], the “Affinity ratio (α3β4/Forbrain)” value is given as 2,197.

In the case of `OCCCCC#Cc1cncc(OC[C@@H]2CCN2)c1` [Ligand 26], on α4β2 nAChR subtype (text b206), the “selectivity at α4β2 vs ganglionic α3β4 receptors” value is reported as 54,000 fold. Also, the “more selective for α4β2 over α3β4 than the corresponding parent compounds 7, 8, and 2” value on α4β2 nAChR subtype was 2 orders of magnitude. Also, in test [2], the “Affinity ratio (α3β4/Forbrain)” value is recorded as 53,778.

Broadly, the Ki is the equilibrium dissociation constant of an inhibitor or competing ligand from its target.
